Measurements reported in patent publication US8541363B2, “Pyruvamide compounds as inhibitors of dust mite group 1 peptidase allergen and their use” (St George's Hosptial Medical School, priority 2010, dated 2013).
pIC50: −log10 of the molar value.

target: Der p 1 (Dermatophagoides pteronyssinus (European house dust mite), UniProt P08176); assay: Der p 1 enzyme activity assay (FRET fluorogenic substrate); format: biochemical; settings: Der p 1 IC50
Procedure: The fluorogenic substrate used for measuring Der p 1 proteolytic activity was 2-aminobenzoylvalylalanylnorleucylseryl-(3-nitro)tyrosinyl aspartamide.
Test compounds were dissolved in dry DMSO and maintained at 4° C. as stock solutions until being diluted for use in screening assays. Final concentration of DMSO in all enzymatic assays was 0.5% v/v.
Reaction mixtures were assembled in a 96-well plate format (Perkin Elmer Optiplate 96F, Perkin Elmer LAS, Seer Green, Buckinghamshire, UK) using a Perkin Elmer MultiPROBE II Plus HTS EX robot with Gripper attachment. […] Dithiothreitol (DTT, 10 μL/well, 1 mM final concentration) was then added together with 10 μL of Der p 1 dissolved at 2.5 μg/mL in reaction buffer supplemented with 1 mM DTT. […] The plate was immediately transferred to a fluorescence plate reader (Perkin Elmer Fusion Alpha-FP or Perkin Elmer Envision) equipped with a temperature-controlled carrier set at 30° C. and the reaction followed by excitation/emission at 330/420 nm.
Inhibitory activity was analysed from progress curves of reactions in the presence of a range of inhibitor concentrations.
Initial velocity in each well was converted to fractional activity by Equation 1: Fractional activity=(Initial rate at inhibitor concentration[X]/Initial rate at inhibitor concentration zero)*100 Equation 1:
Then, IC50 was determined by fitting the data of fractional activity and inhibitor concentration to a 4-parameter logistic curve, using Equation 2: V=Vmin+[Vmax−Vmin]/[1+(X/IC50)Hillslope] […] Biological Data—Der p 1 Enzyme Assay

Der p 1, sequence (P08176 99-320): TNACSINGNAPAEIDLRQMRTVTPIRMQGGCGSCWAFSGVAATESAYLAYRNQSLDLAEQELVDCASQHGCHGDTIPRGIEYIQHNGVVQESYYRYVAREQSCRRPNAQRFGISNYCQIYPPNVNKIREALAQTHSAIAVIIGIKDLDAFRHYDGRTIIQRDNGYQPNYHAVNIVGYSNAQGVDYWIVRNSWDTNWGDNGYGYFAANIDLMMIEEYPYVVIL

SMILES	pIC50
CC(C)[C@H](NC(=O)[C@H](C)NC(=O)[C@H](Cc1ccccc1)NC(=O)c1ccccc1)C(=O)C(=O)NCC(=O)N1CCN(C)CC1 [PVA-047]	> 7.70
CC(C)[C@H](NC(=O)[C@H](C)NC(=O)[C@@H](NC(=O)c1ccccc1)C(C)(C)C)C(=O)C(=O)NCC(=O)N1CCN(C)CC1 [PVA-055]	> 7.70

same assay, conditions: Table 1; read-out: Der p 1 IC50

SMILES	pIC50
CCCC[C@H](NC(=O)[C@H](C)NC(=O)[C@@H](NC(=O)c1ccccc1)C(C)(C)C)C(=O)C(=O)NC1CCCCC1 [PVA-037]	8.11
CCCC[C@H](NC(=O)[C@H](C)NC(=O)[C@@H](NC(=O)c1ccncc1)C(C)(C)C)C(=O)C(=O)NC1CCCCC1 [PVA-039]	8.20

same assay, conditions: threshold stated in text; read-out: Der p 1 IC50

SMILES	pIC50
CC(C)C(NC(=O)[C@H](C)NC(=O)[C@@H](Cc1ccccc1)NC(=O)c1ccncc1)C(=O)C(=O)NC1CCCCC1 (stereo in doubt) [PVA-020]	> 6.70
CC(C)C[C@H](NC(=O)[C@H](C)NC(=O)[C@H](Cc1ccccc1)NC(=O)c1ccccc1)C(=O)C(=O)N[C@@H](C)c1ccccc1 [PVA-002]	> 6.70
CC(C)[C@H](NC(=O)[C@H](C)NC(=O)[C@H](Cc1ccccc1)NC(=O)c1ccccc1)C(=O)C(=O)NC1CCCCC1 [PVA-003]	> 7.70
CC(C)C[C@H](NC(=O)[C@H](C)NC(=O)[C@H](Cc1ccccc1)NC(=O)c1ccccc1)C(=O)C(=O)NC(C)C [PVA-004]	> 6.70
CC(C)C[C@H](NC(=O)[C@H](C)NC(=O)[C@H](Cc1ccccc1)NC(=O)c1ccccc1)C(=O)C(=O)NCc1ccccc1 [PVA-005]	> 7.70
CCCCC(NC(=O)[C@H](C)NC(=O)[C@H](Cc1ccccc1)NC(=O)c1ccccc1)C(=O)C(=O)N1CCCC1 (some centres unmarked) [PVA-006]	> 5.70
CCCCC(NC(=O)[C@H](C)NC(=O)[C@H](Cc1ccccc1)NC(=O)c1ccccc1)C(=O)C(=O)N1CCN(C)CC1 (some centres unmarked) [PVA-007]	> 5.70
CC(C)[C@H](NC(=O)[C@H](C)NC(=O)[C@H](Cc1ccccc1)NC(=O)c1ccccc1)C(=O)C(=O)NCc1ccccc1 [PVA-009]	> 7.70
CC(C)[C@H](NC(=O)[C@H](C)NC(=O)[C@H](Cc1ccccc1)NC(=O)c1ccccc1)C(=O)C(=O)NCCc1ccccc1 [PVA-010]	> 6.70
CC(C)[C@H](NC(=O)[C@H](C)NC(=O)[C@H](Cc1ccccc1)NC(=O)c1ccccc1)C(=O)C(=O)Nc1ccc(F)cc1 [PVA-011]	> 6.70
COc1ccc(NC(=O)C(=O)[C@@H](NC(=O)[C@H](C)NC(=O)[C@H](Cc2ccccc2)NC(=O)c2ccccc2)C(C)C)cc1 [PVA-012]	> 5.70
CC(C)NC(=O)C(=O)[C@@H](NC(=O)[C@H](C)NC(=O)[C@H](Cc1ccccc1)NC(=O)c1ccccc1)C(C)C [PVA-015]	> 6.70
CC(C)[C@H](NC(=O)[C@H](C)NC(=O)[C@H](Cc1ccccc1)NC(=O)c1ccccc1)C(=O)C(=O)N[C@@H](C)c1ccccc1 [PVA-016]	> 5.70
C[C@H](NC(=O)[C@H](Cc1ccccc1)NC(=O)c1ccccc1)C(=O)NCC(=O)C(=O)N1CCC(N(C)C)CC1 [PVA-018]	> 5.70
CC(C)[C@H](NC(=O)[C@H](C)NC(=O)[C@@H](Cc1ccccc1)NC(=O)c1ccc(-c2ccccc2)cc1)C(=O)C(=O)NC1CCCCC1 [PVA-019]	> 6.70
CC(C)[C@H](NC(=O)[C@H](C)NC(=O)[C@@H](Cc1ccccc1)NC(=O)c1cccc(Oc2ccccc2)c1)C(=O)C(=O)NC1CCCCC1 [PVA-021]	> 5.70
CC(C)C(NC(=O)[C@H](C)NC(=O)[C@H](Cc1ccccc1)NC(=O)c1ccccc1)C(=O)C(=O)NCc1ccncc1 (some centres unmarked) [PVA-022]	> 6.70
CC(C)C(NC(=O)[C@H](C)NC(=O)[C@H](Cc1ccccc1)NC(=O)c1ccccc1)C(=O)C(=O)NCc1ccccn1 (some centres unmarked) [PVA-023]	> 6.70
CC(C)C(NC(=O)[C@H](C)NC(=O)[C@H](Cc1ccccc1)NC(=O)c1ccccc1)C(=O)C(=O)NCc1cccnc1 (some centres unmarked) [PVA-024]	> 6.70
CC(C)C(NC(=O)[C@H](C)NC(=O)[C@H](Cc1ccccc1)NC(=O)c1ccccc1)C(=O)C(=O)NCCN1CCCC1 (some centres unmarked) [PVA-025]	> 5.70
CC(C)[C@H](NC(=O)[C@H](C)NC(=O)[C@@H](Cc1ccc(F)cc1)NC(=O)c1ccccc1)C(=O)C(=O)NC1CCCCC1 [PVA-027]	> 6.70
CC(C)[C@H](NC(=O)[C@H](C)NC(=O)[C@@H](Cc1ccc(F)c(F)c1)NC(=O)c1ccccc1)C(=O)C(=O)NC1CCCCC1 [PVA-028]	> 6.70
CC(C)[C@H](NC(=O)[C@H](C)NC(=O)[C@H](NC(=O)c1ccccc1)C1Cc2ccccc2C1)C(=O)C(=O)NC1CCCCC1 [PVA-029]	> 5.70
CC(C)[C@H](NC(=O)[C@H](C)NC(=O)[C@@H](Cc1ccccc1F)NC(=O)c1ccccc1)C(=O)C(=O)NC1CCCCC1 [PVA-030]	> 6.70
CC(C)[C@H](NC(=O)[C@H](C)NC(=O)[C@@H](Cc1cccc(F)c1)NC(=O)c1ccccc1)C(=O)C(=O)NC1CCCCC1 [PVA-031]	> 6.70
CC(C)[C@H](NC(=O)[C@H](C)NC(=O)[C@@H](Cc1ccc2ccccc2c1)NC(=O)c1ccccc1)C(=O)C(=O)NCc1ccccc1 [PVA-032]	> 6.70

SMILES	pIC50
CC(C)[C@H](NC(=O)[C@H](C)NC(=O)[C@@H](Cc1ccc(-c2ccccc2)cc1)NC(=O)c1ccccc1)C(=O)C(=O)NCc1ccccc1 [PVA-033]	> 6.70
CC(C)[C@H](NC(=O)[C@H](C)NC(=O)[C@@H](Cc1cccc2ccccc12)NC(=O)c1ccccc1)C(=O)C(=O)NCc1ccccc1 [PVA-034]	> 5.70
CC(C)[C@H](NC(=O)[C@H](C)NC(=O)[C@@H](Cc1ccccc1)NC(=O)c1ccncc1)C(=O)C(=O)NCc1ccccc1 [PVA-035]	> 7.70
CC(C)[C@H](NC(=O)[C@H](C)NC(=O)[C@@H](Cc1ccncc1)NC(=O)c1ccccc1)C(=O)C(=O)NC1CCCCC1 [PVA-036]	> 6.70
CCCC[C@H](NC(=O)[C@H](C)NC(=O)[C@@H](NC(=O)c1ccccc1)C(C)(C)C)C(=O)C(=O)NC1CCCCC1 [PVA-037]	> 7.70
CCCC[C@H](NC(=O)[C@H](C)NC(=O)[C@@H](NC(=O)c1ccncc1)C(C)(C)C)C(=O)C(=O)NC1CCCCC1 [PVA-039]	> 7.70
CCCCC(NC(=O)[C@H](C)NC(=O)[C@H](Cc1ccccc1)NC(=O)c1ccccc1)C(=O)C(=O)NCc1ccncc1 (some centres unmarked) [PVA-040]	> 5.70
CC(C)[C@H](NC(=O)[C@H](C)NC(=O)[C@H](Cc1ccccc1)NC(=O)c1ccccc1)C(=O)C(=O)NCc1ccc2c(c1)OCO2 [PVA-041]	> 6.70
COc1ccc(CNC(=O)C(=O)[C@@H](NC(=O)[C@H](C)NC(=O)[C@H](Cc2ccccc2)NC(=O)c2ccccc2)C(C)C)cc1 [PVA-042]	> 7.70
CCCC[C@H](NC(=O)[C@H](C)NC(=O)[C@@H](Cc1ccccc1)NC(=O)c1ccc(N2CCN(C)CC2)cc1)C(=O)C(=O)NC1CCCCC1 [PVA-043]	> 5.70
CC(C)[C@H](NC(=O)[C@H](C)NC(=O)[C@H](Cc1ccccc1)NC(=O)c1ccccc1)C(=O)C(=O)NC1CCOCC1 [PVA-044]	> 6.70
CC(C)[C@H](NC(=O)[C@H](C)NC(=O)[C@@H](Cc1ccc(F)cc1)NC(=O)c1ccccc1)C(=O)C(=O)NCc1ccccc1 [PVA-045]	> 6.70
COCCNC(=O)C(=O)[C@@H](NC(=O)[C@H](C)NC(=O)[C@H](Cc1ccccc1)NC(=O)c1ccccc1)C(C)C [PVA-046]	> 6.70
CC(C)[C@H](NC(=O)[C@H](C)NC(=O)[C@@H](NC(=O)c1ccnc(N2CCOCC2)c1)C(C)(C)C)C(=O)C(=O)NCc1ccccc1 [PVA-048]	> 6.70
CC(C)[C@H](NC(=O)[C@H](C)NC(=O)[C@@H](NC(=O)c1ccc(N2CCOCC2)nc1)C(C)(C)C)C(=O)C(=O)NC1CCCCC1 [PVA-049]	> 6.70
CC(C)[C@H](NC(=O)[C@H](C)NC(=O)[C@H](Cc1ccccc1)NC(=O)c1ccc2ncsc2c1)C(=O)C(=O)NC1CCCCC1 [PVA-050]	> 6.70
CC(C)[C@H](NC(=O)[C@H](C)NC(=O)[C@H](Cc1ccccc1)NC(=O)c1ccc2ncsc2c1)C(=O)C(=O)NCc1ccccc1 [PVA-051]	> 6.70
CC(C)[C@H](NC(=O)[C@H](C)NC(=O)[C@@H](NC(=O)c1cccc2ccccc12)C(C)(C)C)C(=O)C(=O)NC1CCCCC1 [PVA-052]	> 6.70
CC(C)[C@H](NC(=O)[C@H](C)NC(=O)[C@@H](NC(=O)c1ccc2ncsc2c1)C(C)(C)C)C(=O)C(=O)NC1CCCCC1 [PVA-053]	> 6.70
CC(C)[C@H](NC(=O)[C@H](C)NC(=O)[C@@H](NC(=O)c1cnccn1)C(C)(C)C)C(=O)C(=O)NC1CCCCC1 [PVA-054]	> 6.70
CC(C)[C@H](NC(=O)[C@H](C)NC(=O)[C@@H](NC(=O)c1cccc2ccccc12)C(C)(C)C)C(=O)C(=O)NCc1ccccc1 [PVA-056]	> 6.70
CC(C)[C@H](NC(=O)[C@H](C)NC(=O)[C@@H](NC(=O)c1ccc2ncsc2c1)C(C)(C)C)C(=O)C(=O)NCc1ccccc1 [PVA-057]	> 6.70
CC(C)[C@H](NC(=O)[C@H](C)NC(=O)[C@@H](NC(=O)c1cnccn1)C(C)(C)C)C(=O)C(=O)NCc1ccccc1 [PVA-058]	> 6.70
CC(=O)Nc1ccc(C(=O)N[C@@H](Cc2ccccc2)C(=O)N[C@@H](C)C(=O)N[C@H](C(=O)C(=O)NCc2ccccc2)C(C)C)cn1 [PVA-059]	> 6.70
CC(=O)Nc1cc(C(=O)N[C@@H](Cc2ccccc2)C(=O)N[C@@H](C)C(=O)N[C@H](C(=O)C(=O)NCc2ccccc2)C(C)C)ccn1 [PVA-060]	> 6.70
CC(=O)Nc1ccc(C(=O)N[C@H](C(=O)N[C@@H](C)C(=O)N[C@H](C(=O)C(=O)NC2CCCCC2)C(C)C)C(C)(C)C)cn1 [PVA-061]	> 6.70
